# “Also recorded” adds a separate entry of the source.
# Columns and labels:
# microorganisms [1] = assay: Peptide activities: targeting/binding, antimicrobial, growth or phenotype altering (Tables 7, 8); format: cell-based; conditions: peptides having multiple activities
# microorganisms [2] = assay: Morphology, biofilm and growth disrupting peptides (Table 5); format: cell-based; set-up: key: A: Peptide aggregates; B: Less hyphal formation; Clumps; Diffuse clumps and small polyps; F: Diffuse growth; H: Thin; I: Growth inhibition; Microcolony formation; Rippled; Small polyps; Thick; W: Halo formation on top, microlonies on bottom
# Source text: In certain embodiments peptides that induce alterations in phenotype or other biological activities can also be used as antimicrobial effector moieties.
# microorganisms [3] = assay: Targeting peptide binding to target microorganisms (Tables 3, 10, 12); conditions: microorganism(s) the targeting peptide binds; binding in aqueous buffers varied with peptide solubility, preferably 1x PBS
Substance,Activities (microorganisms [1]),"Organism, effect (microorganisms [2]; MRSA)","Organism, effect (microorganisms [2]; S. epidermidis)","Organism, effect (microorganisms [2]; S. pneumoniae)",Target(s) (microorganisms [3]),"Organism, effect (microorganisms [2]; S. mutans)",also measured
PF-686: peptide having multiple activities (LAVLMGYIGYRGWSGKRHINRQ; Peptide with targeting and/or antimicrobial activity),G B,MRSA (M),S. epidermidis (H),S. pneumoniae (A),M. smegmatis,–,"Organism, effect (microorganisms [2]; B. subtilis): B. subtilis (I); Organism, effect (microorganisms [2]; C. albicans): C. albicans (B); Organism, effect (microorganisms [2]; E. faecalis): E. faecalis (R)"
PF-737: peptide having multiple activities (KSSGSSASASSTAGGSSSK; Peptide with targeting and/or antimicrobial activity),G B,–,–,S. pneumoniae (D),S. epidermidis; also recorded: S. pneumoniae,–,–
PF-738: peptide having multiple activities (KSGATSAASGAKSGASS; Peptide with targeting and/or antimicrobial activity),G B,MRSA (M),–,–,S. epidermidis; also recorded: C. albicans; also recorded: C. jeikeium,–,–
PF-741: peptide having multiple activities (AKREDTVAAQIGANILNLIQ; Peptide with targeting and/or antimicrobial activity),G B,MRSA (C),S. epidermidis (C),S. pneumoniae (D),S. epidermidis and M. luteus and P. mirabilis and P. aeruginosa and C. albicans and MRSA and S. pneumoniae and E. faecalis,S. mutans (D),"Organism, effect (microorganisms [2]; E. coli): E. coli (C); Organism, effect (microorganisms [2]; M. luteus): M. luteus (C); Organism, effect (microorganisms [2]; P. mirabilis): P. mirabilis (C)"
PF-744: peptide having multiple activities (LGVGTFVGKVLIKNQQKQKSKKKAQ; Peptide with targeting and/or antimicrobial activity),G B,–,–,S. pneumoniae (H),S. epidermidis and M. luteus and E. coli and MRSA and S. pneumoniae and E. faecalis and C. jeikeium,–,–
PF-746: peptide having multiple activities (FLGNSQYFTRK; Peptide with targeting and/or antimicrobial activity),G B,MRSA (C),S. epidermidis (C),S. pneumoniae (C),S. epidermidis; also recorded: M. luteus; also recorded: E. coli; also recorded: C. albicans; also recorded: S. pneumoniae; also recorded: E. faecalis; also recorded: C. jeikeium,S. mutans (D),"Organism, effect (microorganisms [2]; E. coli): E. coli (C); Organism, effect (microorganisms [2]; M. luteus): M. luteus (C); Organism, effect (microorganisms [2]; P. aeruginosa): P. aeruginosa (A)"
PF-756: peptide having multiple activities (DALLRLA; Peptide with targeting and/or antimicrobial activity),G B,–,–,S. pneumoniae (A),S. epidermidis and M. luteus and C. albicans and MRSA and C. jeikeium,–,–
PF-757: peptide having multiple activities (PQAISSVQQNA; Peptide with targeting and/or antimicrobial activity),G B,–,–,S. pneumoniae (H),M. luteus and C. albicans and MRSA,–,–
PF-760: peptide having multiple activities (DHITLDDYEIHDGFNFELYYG; Peptide with targeting and/or antimicrobial activity),G B,MRSA (M),S. epidermidis (M),S. pneumoniae (C),S. epidermidis; also recorded: M. luteus,–,–
PF-761: peptide having multiple activities (SKFELVNYASGCSCGADCKCASETECKCASKK; Peptide with targeting and/or antimicrobial activity),G B,MRSA (D),S. epidermidis (C),S. pneumoniae (C),S. epidermidis and M. luteus and P. mirabilis and P. aeruginosa and C. albicans and MRSA and S. pneumoniae and E. faecalis,S. mutans (D),"Organism, effect (microorganisms [2]; E. coli): E. coli (C); Organism, effect (microorganisms [2]; M. luteus): M. luteus (C); Organism, effect (microorganisms [2]; P. aeruginosa): P. aeruginosa (C)"
PF-762: peptide having multiple activities (PAPAPSAPAPAPEQPEQPA; Peptide with targeting and/or antimicrobial activity),G B,–,–,S. pneumoniae (H),M. luteus; also recorded: C. albicans,–,–
PF-764: peptide having multiple activities (GYFEPGKRD; Peptide with targeting and/or antimicrobial activity),G B,MRSA (D),–,S. pneumoniae (H),S. epidermidis and M. luteus and C. albicans and MRSA and S. pneumoniae and E. faecalis and C. jeikeium,–,–
PF-776: peptide having multiple activities (VSILLYLSATIILPNVLRLLVARAIIVRV; Peptide with targeting and/or antimicrobial activity),G B,MRSA (D),S. epidermidis (D),S. pneumoniae (C),S. epidermidis and M. luteus and P. mirabilis and C. albicans and MRSA and S. pneumoniae and E. faecalis,S. mutans (D),"Organism, effect (microorganisms [2]; E. coli): E. coli (C); Organism, effect (microorganisms [2]; M. luteus): M. luteus (C)"
PF-C052: peptide having multiple activities (SRFRNGV; Peptide with targeting and/or antimicrobial activity),G B,–,–,–,A. naeslundii; also recorded: F. nucleatum; also recorded: S. mutans,–,"Organism, effect (microorganisms [2]; P. gingivalis): P. gingivalis (H)"
PF-C055: peptide having multiple activities (YNLSIYIYFLHTITIAGLITLPFII; Peptide with targeting and/or antimicrobial activity),G B,–,–,–,A. naeslundii; also recorded: F. nucleatum; also recorded: P. gingivalis; also recorded: S. mutans,S. mutans (I),"Organism, effect (microorganisms [2]; F. nucleatum): F. nucleatum (T)"
PF-C057: peptide having multiple activities (YFWWYWVQDCIPYKNNEVWLELSNNMK; Peptide with targeting and/or antimicrobial activity),G B,–,–,–,A. naeslundii; also recorded: F. nucleatum; also recorded: P. gingivalis; also recorded: S. mutans,S. mutans (I),–
PF-C062: peptide having multiple activities (PLARATEVVATLFIICSLLLYLTR; Peptide with targeting and/or antimicrobial activity),G B,–,–,–,A. naeslundii; also recorded: F. nucleatum; also recorded: P. gingivalis; also recorded: S. mutans; also recorded: T. denticola,S. mutans (I),"Organism, effect (microorganisms [2]; F. nucleatum): F. nucleatum (T)"
PF-C064: peptide having multiple activities (DEEALEMGANLYAQFAIDFLNSKK; Peptide with targeting and/or antimicrobial activity),G B,–,–,–,A. naeslundii; also recorded: F. nucleatum; also recorded: P. gingivalis; also recorded: S. mutans; also recorded: T. denticola,–,"Organism, effect (microorganisms [2]; F. nucleatum): F. nucleatum (T)"
PF-C069: peptide having multiple activities (NALMLREMQLAKNIKVEVTDVLSNKKYC; Peptide with targeting and/or antimicrobial activity),G B,–,–,–,A. naeslundii; also recorded: F. nucleatum; also recorded: P. gingivalis; also recorded: S. mutans; also recorded: T. denticola,–,"Organism, effect (microorganisms [2]; F. nucleatum): F. nucleatum (T)"
PF-C071: peptide having multiple activities (QVIVKIL; Peptide with targeting and/or antimicrobial activity),G B,–,–,–,A. naeslundii; also recorded: F. nucleatum; also recorded: S. mutans,–,"Organism, effect (microorganisms [2]; F. nucleatum): F. nucleatum (T)"

# From patent publication US20110039763A1, “TARGETED ANTIMICROBIAL MOIETIES” (C3 JIAN, INC., priority 2009, published 2011)
